According to PMC10999112 (Angewandte Chemie (International ed. in English), 2023):

Target: recombinant WT-NSUN2 (Homo sapiens, UniProt Q08J23)
Test: Gel-ABPP in lysate of WT-NSUN2-expressing HEK293T cells
Assay type: binding
Details: recombinant WT-NSUN2 in HEK293T cell lysates

Sequence of recombinant WT-NSUN2 (Q08J23 whole entry): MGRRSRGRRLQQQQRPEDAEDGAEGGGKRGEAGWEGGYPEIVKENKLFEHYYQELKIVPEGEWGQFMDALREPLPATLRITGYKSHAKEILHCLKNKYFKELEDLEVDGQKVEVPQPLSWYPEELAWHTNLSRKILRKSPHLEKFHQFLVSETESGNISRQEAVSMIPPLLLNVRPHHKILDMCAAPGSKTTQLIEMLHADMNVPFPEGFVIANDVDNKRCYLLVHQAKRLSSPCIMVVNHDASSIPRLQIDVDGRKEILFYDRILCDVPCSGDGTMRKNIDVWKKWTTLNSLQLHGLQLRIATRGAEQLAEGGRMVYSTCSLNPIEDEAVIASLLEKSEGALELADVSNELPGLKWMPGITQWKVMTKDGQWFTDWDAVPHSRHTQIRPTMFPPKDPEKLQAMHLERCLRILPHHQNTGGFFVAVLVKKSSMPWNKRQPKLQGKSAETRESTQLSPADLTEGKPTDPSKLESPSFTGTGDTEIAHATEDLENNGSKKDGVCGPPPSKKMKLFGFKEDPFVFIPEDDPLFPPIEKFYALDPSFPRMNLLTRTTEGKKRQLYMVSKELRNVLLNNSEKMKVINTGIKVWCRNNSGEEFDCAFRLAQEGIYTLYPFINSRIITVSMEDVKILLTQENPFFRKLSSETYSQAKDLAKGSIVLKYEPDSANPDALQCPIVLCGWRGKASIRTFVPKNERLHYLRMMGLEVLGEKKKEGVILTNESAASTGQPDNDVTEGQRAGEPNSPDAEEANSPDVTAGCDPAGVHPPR

Nc1ncnc2c1ncn2[C@@H]1O[C@H](CSCC[C@H](N)C(=O)O)[C@@H](O)[C@H]1O [SAH, S-adenosylhomocysteine]
blockade of MY-11B reactivity with NSUN2: blocked in a concentration-dependent manner
